Assay results: ChEMBL document CHEMBL1201862, “PubChem BioAssay data set” (2004)
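Values below derive from 48-hour exposures of cells grown in 96-well plates, with endpoints linearly interpolated between the two concentrations bracketing the appropriate inhibition level. At the GI50, growth is halved.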 Activity calls are given as the source filed them. Rule as the data show it: active = GI50 up to about 1.1 µM and inactive = higher. Where a SMILES comes first, the peptide text is derived from it. [ ]: non-standard residue; d: D form. The star is where a group is joined. Octanoyl = CCCCCCCC(=O)*; Aib = CC(C)(N)C(=O)O; tBu = CC(C)(C)*

Experiments:
Test in all cases: growth of human tumour cells (NCI), 48 h
SNB-75 = system: SNB-75
SK-MEL-28 = system: SK-MEL-28
SW-620 = system: SW-620
DMS-273 = system: DMS-273
CCRF-CEM = system: CCRF-CEM
HCT-15 = system: HCT-15
HOP-62 = system: HOP-62
A549 = system: A549
OVCAR-3 = system: OVCAR-3
SNB-19 = system: SNB-19
A498 = system: A498
BT-549 = system: BT-549
CAKI-1 = system: CAKI-1
MDA-N = system: MDA-N
OVCAR-5 = system: OVCAR-5
OVCAR-4 = system: OVCAR-4
SR = system: SR
PC-3 = system: PC-3
DU-145 = system: DU-145
HOP-92 = system: HOP-92

| SMILES | GI50 (SNB-75) | GI50 (SK-MEL-28) | GI50 (SW-620) | GI50 (DMS-273) | GI50 (CCRF-CEM) | GI50 (HCT-15) | GI50 (HOP-62) | GI50 (A549) | GI50 (OVCAR-3) | GI50 (SNB-19) | GI50 (A498) | GI50 (BT-549) | GI50 (CAKI-1) | GI50 (MDA-N) | GI50 (OVCAR-5) | GI50 (OVCAR-4) | GI50 (SR) | GI50 (PC-3) | GI50 (DU-145) | GI50 (HOP-92) |
| --- | --- | --- | --- | --- | --- | --- | --- | --- | --- | --- | --- | --- | --- | --- | --- | --- | --- | --- | --- | --- |
| CC1=C(C)C(=O)c2c(cc3c4ccccc4ccn23)C1=O | > 100 µM (inactive) | > 100 µM (inactive) | > 100 µM (inactive) | > 100 µM (inactive) | > 10 µM (inactive) | > 100 µM | > 100 µM (inactive) | > 100 µM (inactive) | > 100 µM (inactive) | > 100 µM (inactive) | – | – | – | – | – | – | – | – | – | – |
| N#Cc1c(N)nc(SCc2ccccc2)c(C#N)c1-c1ccc(O)cc1 | 16.8 µM (inactive) | 13.4 µM (inactive) | 15.2 µM (inactive) | – | 13.4 µM (inactive) | 11.2 µM | 15.2 µM (inactive) | 11.7 µM (inactive) | 14.6 µM (inactive) | 17.3 µM (inactive) | 13.1 µM (inactive) | 11.6 µM (inactive) | 13.5 µM (inactive) | 13 µM (inactive) | 16.4 µM (inactive) | 10.3 µM (inactive) | 10.9 µM (inactive) | 15.5 µM (inactive) | 13.5 µM (inactive) | 6.97 µM (inactive) |
| N#Cc1ncc(C(Cl)Cl)nc1Cl | 2.29 µM (inactive) | 1.89 µM (inactive) | 1.94 µM (inactive) | – | 0.491 µM (active) | 1.82 µM | 3.07 µM (inactive) | 3.24 µM (inactive) | 2.12 µM (inactive) | 6.38 µM (inactive) | > 10 µM (inactive) | 1.84 µM (inactive) | 1.4 µM (inactive) | 1.5 µM (inactive) | 1.95 µM (inactive) | 1.85 µM (inactive) | 1.81 µM (inactive) | 1.8 µM (inactive) | 8.67 µM (inactive) | 0.00769 µM (active) |
| COC1CCC(=C2C(=O)OC(C)(C)OC2=O)N1 (stereo unspecified) | > 100 µM (inactive) | > 100 µM (inactive) | > 100 µM (inactive) | > 100 µM (inactive) | > 100 µM (inactive) | > 100 µM | > 100 µM (inactive) | > 100 µM (inactive) | – | > 100 µM (inactive) | – | – | > 100 µM (inactive) | – | > 100 µM (inactive) | > 100 µM (inactive) | – | – | – | – |
| CCN(CC)c1ccc(Cl)c2c1C(O)(C(C)C)C2(C)C (stereo unspecified) | 18 µM (inactive) | 22.4 µM (inactive) | 18.1 µM (inactive) | 15.8 µM (inactive) | 18.5 µM (inactive) | 14.5 µM | 23.7 µM (inactive) | 19.9 µM (inactive) | 12.6 µM (inactive) | 15.2 µM (inactive) | 21.3 µM (inactive) | – | 20 µM (inactive) | – | 16.6 µM (inactive) | 19 µM (inactive) | – | – | – | – |
| CCOC(=O)c1[nH]cc(C)c1-c1c[nH]c2ccccc12 | 28.1 µM (inactive) | 39.4 µM (inactive) | 27.9 µM (inactive) | – | 18.9 µM (inactive) | 8.81 µM | 35.3 µM (inactive) | 28.8 µM (inactive) | 26.7 µM (inactive) | 24.9 µM (inactive) | 59.6 µM (inactive) | 26.5 µM (inactive) | 37.1 µM (inactive) | 24.9 µM (inactive) | 39.7 µM (inactive) | 41.5 µM (inactive) | 1.82 µM (inactive) | 14 µM (inactive) | 45 µM (inactive) | 22.8 µM (inactive) |
| COc1cc(OC)c2c(=O)c3cccc([N+](=O)[O-])c3n(C)c2c1 | > 100 µM (inactive) | > 100 µM (inactive) | > 100 µM (inactive) | 60.3 µM (inactive) | 60 µM (inactive) | > 100 µM | – | > 100 µM (inactive) | – | > 100 µM (inactive) | – | – | > 100 µM (inactive) | – | – | > 100 µM (inactive) | – | – | – | – |
| [O-][S+](Cc1ccccc1)c1nc2ccccc2nc1-c1cccs1 (stereo unspecified) | 17.6 µM (inactive) | 11.3 µM (inactive) | – | 9.59 µM (inactive) | 4 µM (inactive) | 9.29 µM | 19.2 µM (inactive) | 15.2 µM (inactive) | 11.2 µM (inactive) | 18.2 µM (inactive) | – | – | – | – | 17.6 µM (inactive) | 5.78 µM (inactive) | – | – | – | 15.6 µM (inactive) |
| Cc1ccc2c(c1)-c1c3c(nn1C)-c1ccccc1SC3O2 (stereo unspecified) | 55.8 µM (inactive) | 78.9 µM (inactive) | > 100 µM (inactive) | 55.5 µM (inactive) | 41 µM (inactive) | – | > 100 µM (inactive) | 50 µM (inactive) | 85.9 µM (inactive) | – | 49.7 µM (inactive) | – | – | – | > 100 µM (inactive) | – | – | – | – | 27 µM (inactive) |
| CC(C)C1OC(=O)/C=C/C=C/C=C/C=C/C=C/CC(O)CC(O)CC(O)CC(O)CC(O)CC(O)CC(O)CC(O)/C=C/C1C (stereo unspecified) | > 100 µM (inactive) | > 100 µM (inactive) | > 100 µM (inactive) | – | > 100 µM (inactive) | > 100 µM | > 100 µM (inactive) | > 100 µM (inactive) | > 100 µM (inactive) | > 100 µM (inactive) | > 100 µM (inactive) | > 100 µM (inactive) | > 100 µM (inactive) | > 100 µM (inactive) | > 100 µM (inactive) | > 100 µM (inactive) | > 100 µM (inactive) | > 100 µM (inactive) | > 100 µM (inactive) | > 100 µM (inactive) |
| CCCCCCCC(=O)NC(C)(C)C(=O)NC(COC(C)(C)C)C(=O)NC(CC(C)C)C(=O)NC(C)(C)C(=O)NC(COC(C)(C)C)C(=O)NC(COC(C)(C)C)C(=O)NC(CC(C)C)C(=O)NC(C)(C)C(=O)NC(COC(C)(C)C)C(=O)NC(C(=O)NC(CC(C)C)C(=O)OC)C(C)CC (stereo unspecified) (Octanoyl-[Aib]S(tBu)L[Aib]S(tBu)S(tBu)L[Aib]S(tBu)IL-OMe; configuration not given here) | 5.24 µM (inactive) | 14.4 µM (inactive) | 8.95 µM (inactive) | – | 4.79 µM (inactive) | 8.13 µM | 9.31 µM (inactive) | 8.18 µM (inactive) | 4.85 µM (inactive) | 7.55 µM (inactive) | 5.5 µM (inactive) | 5.38 µM (inactive) | 18.5 µM (inactive) | 8.65 µM (inactive) | 6.5 µM (inactive) | 8.63 µM (inactive) | 5.62 µM (inactive) | 4.23 µM (inactive) | 6.9 µM (inactive) | 4.43 µM (inactive) |
| CCCCCCC(O)C(O)CCC(O)C1CCC(CCCCC(O)CC2=CC(C)OC2=O)O1 (stereo unspecified) [ACETOGENINS] | 2.69 µM (inactive) | 4.66 µM (inactive) | 4.04 µM (inactive) | – | 3.58 µM (inactive) | 4.53 µM | 3.81 µM (inactive) | 1.79 µM (inactive) | 1.71 µM (inactive) | 2.74 µM (inactive) | 17.5 µM (inactive) | 23.4 µM (inactive) | 2.2 µM (inactive) | 2.32 µM (inactive) | 8.3 µM (inactive) | 17.5 µM (inactive) | 1.69 µM (inactive) | 2.78 µM (inactive) | 6.19 µM (inactive) | 4.88 µM (inactive) |
| CC/C(=C(\c1ccccc1)c1ccc(OCC[N+](C)(C)C)cc1)c1ccccc1 [TAMOXIFEN METHYL IODIDE] | 8.85 µM (inactive) | 8.59 µM (inactive) | 16 µM (inactive) | 6.4 µM (inactive) | 11.5 µM (inactive) | 17.7 µM | 32.4 µM (inactive) | 18.7 µM (inactive) | 4.76 µM (inactive) | 17.4 µM (inactive) | 19 µM (inactive) | – | 17.5 µM (inactive) | – | – | 13 µM (inactive) | – | – | – | – |
